Experimental data as given in patent US20260048046A1, “METHOD FOR IMPROVING GROWTH PERFORMANCE IN FEEDLOT CATTLE” (Elanco US Inc., priority 2022, published 2026).

How the values were obtained:
beef feedlot cattle = experiment: 56-d study: growth performance; type: in vivo; parameters: Average daily dry matter (DMI) / Average daily dry matter (DMI), difference from control: unit not given here; conditions: for Average daily dry matter (DMI) / Average daily gain (ADG) / Gain:feed, ADG:DMI / Final BW: 56 d treatment, steers, LS mean; for Final BW: initial weight as covariate
Method: This example describes a randomized complete block study that evaluated LUB dose (0, 1.5, 3.5, and 5.5 mg kg^−1 dry matter) during the last 56 d of the feeding period on live weight, carcass weight, and associated ratios in beef feedlot cattle. Carcass characteristics, mobility, and health were also evaluated. All cattle received monensin and tylosin throughout the study.
A randomized complete block design was used to evaluate the effects of LUB on calculated growth performance of 2,880 British and Continental European crossbred steers typical for U.S. feedlots. Bos indicus breeding was limited to less than ⅛. The study evaluated four
LUB doses: 0 (control, CON), 1.5, 3.5, and 5.5 mg·kg^−1 DM. There were 12 blocks, each block containing four replicate pens that started LUB feeding on the same date. Steers were randomized within each block of four pens with 60 steers per pen, resulting in a total of 720 steers enrolled in each treatment. LUB feeding started on Jun. 24, 2018, Jul. 1, 2018, and Jul. 15, 2018, four blocks on each date.
Beginning no later than approximately d −70, animals were fed a diet containing Rumensin (monensin 46.3 mg·kg^−1 100% DM basis; Elanco, Greenfield, IN, USA) and Tylan (tylosin 8.9 mg·kg^−1 100% DM basis; Elanco) ad libitum. Cattle in the LUB treatments were switched from the basal finishing ration to the finishing ration containing the appropriate concentrations of LUB Type A premix at the start of the treatment period (d −57). Table 5 lists the composition and the formulated nutrient composition of the finishing diet. The diet was designed to meet or exceed the minimum nutrient requirements cited in Nutrient Requirements of Beef Cattle (NASEM, 2016). LUB was delivered to the cattle using a 1% LUB Type A premix prepared and delivered by Elanco (Clinton Laboratories, Clinton, IN, USA), and the ration was prepared on-site at the research facility. The 1% Type A premix was delivered into the ration by flushing the 1% Type A premix through a micro-ingredient machine (Micro Technologies, Amarillo, TX) with water, which was included at approximately 27 kg of the “as-fed” ration, for each 3,629 kg batch. The 1% Type A premix was included in the finishing ration at 0, 0.0154%, 0.0353%, or 0.0551% (100% DM) to provide CON, 1.5, 3.5, or 5.5 mg·kg^−1 LUB (100% DM). The on-site feed mixers used to mix (stationary horizontal paddle mixer [Cactus Varied Industries, Amarillo, TX, USA]) and deliver (Roto-Mix 490-14 and Roto-Mix 620-16, Roto-Mix LLC, Dodge City, KS) the Type C feed were qualified to confirm that the ration could be mixed homogeneously before feeding medicated feed. Cattle were fed in order of CON, 1.5, 3.5, or 5.5 mg·kg^−1 doses of LUB. Prior to mixing the CON batches, the mixer was flushed with appropriate amount of non-medicated feed or other cattle feed to assure no carryover of test compound. Feed was issued three times each day at approximately the same time each day. Bunk calls were made at the time of first feeding and amount of feed issued for the third feeding was adjusted based on daily bunk calls according to site procedures. The feeding goal was to have slick bunks prior to the first feeding and approximately ⅓ of the cattle at the bunk, ⅓ of the cattle moving to the bunk, and ⅓ of the cattle not moving to the bunk at time of first feeding. Water was available ad libitum throughout the study. The weight of feed issued was recorded and electronic feed records were provided for data analysis.
Animals were weighed individually at the time of randomization (approximately d −69 to d −66) and this weight was used to exclude steers with extreme BW from the trial. All other BW (unshrunk) were collected by pen and used for calculation of growth performance. Scheduled pen weights were taken prior to feed delivery and collected on d −59 (2 d before treatment start, which was considered the treatment start weight) and d 0 (1 d after the end of treatment, which was considered the treatment end weight). […]

beef cattle = experiment: 91-d study: Warner-Bratzler shear force of striploin steaks; type: in vivo; conditions: 91-d treatment, LS mean, shear force after 14-d aging
Method: Following chill, striploins (LM) were collected from three randomly selected cattle/CPE and shipped to the University of Illinois Meat Science Laboratory for Warner-Bratzler shear force (WBSF) determination. At the laboratory, the anterior end of the striploin was fabricated into 2.54-cm steaks, vacuum packaged, and aged at 4° C. until 14-d postmortem. Steaks were frozen after aging, and then thawed at 4° C. for 24 h before being cooked on a Farberware Open Hearth electric broiler (Farberware, Bronx, NY). Copper-constantan Type-T thermocouples (Omega Engineering. Stamford, CT) connected to a digital scanning thermometer (Barnant Co., Barington, IL) were used to monitor internal temperature, and each steak was flipped a single time when the internal temperature reached 35° C. The steaks were removed from the grill when a temperature of 70° C. was achieved and cooled to ˜25° C. before six cores (1.25 cm diameter) were removed parallel to muscle fiber orientation. Cores were sheared perpendicular to the muscle fibers using a Texture Analyzer TA.HD Plus (Stable Microsystems, Godalming. UK) equipped with a WBSF attachment, and the peak WBSF measurement was averaged over all 6 cores to obtain a single shear force measurement (kg of force) for each steak.

[1] = steers fed LUB (doses pooled), 56 d

## CC(C)(Cc1ccc(Oc2ncccc2C#N)cc1)NC[C@H](O)COc1ccccc1-c1cccs1 [LUB, 2-{4-[2-({(2S)-2-Hydroxy-3-[2-(2-thienyl)phenoxy]propyl}amino)-2-methylpropyl]phenoxy}nicotinonitrile]
Beef feedlot cattle; 1.5 mg·kg^−1 vs. control, 56 d
  Average daily dry matter (DMI), difference from control: 0.2
  Average daily dry matter (DMI), percent change from Control: 2.0%
  Average daily gain (ADG), difference from control: 0.19 kg
  Average daily gain (ADG), percent change from Control: 11.3%
  Final BW, difference from control: 11.6 kg
  Final BW, percent change from Control: 1.7%
  Gain:feed, ADG:DMI, difference from control: 0.015
  Gain:feed, ADG:DMI, percent change from Control: 9.0%
Beef feedlot cattle; 3.5 mg·kg^−1 vs. control, 56 d
  Average daily dry matter (DMI), difference from control: 0.3
  Average daily dry matter (DMI), percent change from Control: 3.0%
  Average daily gain (ADG), difference from control: 0.26 kg
  Average daily gain (ADG), percent change from Control: 15.5%
  Final BW, difference from control: 15.7 kg
  Final BW, percent change from Control: 2.4%
  Gain:feed, ADG:DMI, difference from control: 0.028
  Gain:feed, ADG:DMI, percent change from Control: 12.0%
Beef feedlot cattle; 5.5 mg·kg^−1 vs. control, 56 d
  Average daily dry matter (DMI), difference from control: 0.2
  Average daily dry matter (DMI), percent change from Control: 2.0%
  Average daily gain (ADG), difference from control: 0.24 kg
  Average daily gain (ADG), percent change from Control: 14.3%
  Final BW, difference from control: 14.3 kg
  Final BW, percent change from Control: 2.1%
  Gain:feed, ADG:DMI, difference from control: 0.019
  Gain:feed, ADG:DMI, percent change from Control: 11.4%
Beef feedlot cattle; LUB 1.5 mg·kg^−1 DM
  Average daily dry matter (DMI): 10.3
  Average daily gain (ADG): 1.87 kg
  Gain:feed, ADG:DMI: 0.182
  Final BW: 679.0 kg
Beef feedlot cattle; LUB 3.5 mg·kg^−1 DM
  Average daily dry matter (DMI): 10.4
  Average daily gain (ADG): 1.94 kg
  Gain:feed, ADG:DMI: 0.187
  Final BW: 683.1 kg
Beef feedlot cattle; LUB 5.5 mg·kg^−1 DM
  Average daily dry matter (DMI): 10.3
  Average daily gain (ADG): 1.92 kg
  Gain:feed, ADG:DMI: 0.186
  Final BW: 681.7 kg
Beef feedlot cattle; [1]
  Average daily gain: 1.91 kg
  Average daily gain greater than control: 13.7%
  Gain efficiency: 0.185
  Gain efficiency greater than control: 10.8%
Beef feedlot cattle; steers that received LUB (doses pooled), 56 d
  Daily dry matter intake greater than control: 2.3%
Beef cattle; LUB 1.38 mg·kg^−1 DM
  14-dWBSP: 2.79 kg
Beef cattle; LUB 5.5 mg·kg^−1 DM
  14-dWBSP: 2.92 kg
Beef cattle; LUB 22.0 mg·kg^−1 DM
  14-dWBSP: 2.75 kg
